# Results as given in ChEMBL document CHEMBL5257035, “Nucleoside Derived Antibiotics to Fight Microbial Drug Resistance: New Utilities for an Established Class of Drugs?” (J Med Chem, 2016).
# Legend:
# [1] = Inhibition of Bacterial MraY; parameters: species or system Bacteria
# [2] = system: Candida albicans; assay: Inhibition of Candida albicans chitin synthase at 1 uM relative to control
# [3] = system: Candida albicans; assay: Antifungal activity against Candida albicans SC5314 assessed as reduction in microbial growth inhibition incubated for 48 hrs by broth microdilution assay; format: functional
# [4] = system: Cutaneotrichosporon cutaneum; assay: Antifungal activity against Trichosporon cutaneum 3071 assessed as reduction in microbial growth inhibition for 48 hrs by broth microdilution assay; format: functional
# [5] = target: T1, Phospho-N-acetylmuramoyl-pentapeptide-transferase (Escherichia coli K-12, UniProt P0A6W3); assay: Inhibition of MraY in Escherichia coli K12
# T1 sequence (P0A6W3 whole entry): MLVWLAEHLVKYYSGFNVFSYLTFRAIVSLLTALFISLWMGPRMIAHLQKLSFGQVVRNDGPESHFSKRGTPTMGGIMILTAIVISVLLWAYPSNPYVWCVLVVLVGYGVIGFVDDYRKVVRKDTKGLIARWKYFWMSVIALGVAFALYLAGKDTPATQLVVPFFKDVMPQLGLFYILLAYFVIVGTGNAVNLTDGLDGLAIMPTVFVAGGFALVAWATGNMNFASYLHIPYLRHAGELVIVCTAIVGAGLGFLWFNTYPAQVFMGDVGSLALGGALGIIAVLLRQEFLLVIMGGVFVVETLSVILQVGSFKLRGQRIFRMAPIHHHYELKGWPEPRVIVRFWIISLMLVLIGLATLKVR
# [6] = system: Pseudomonas aeruginosa; assay: Antibacterial activity against Pseudomonas aeruginosa assessed as bacterial growth reduction; format: functional
# [7] = Toxicity in rat; conditions: in vivo
# [8] = system: Bacillus subtilis; assay: Antibacterial activity against Bacillus subtilis ATCC 6633 assessed as bacterial growth inhibition by agar diffusion method; format: functional
# [9] = target: T2, Phospho-N-acetylmuramoyl-pentapeptide-transferase (Escherichia coli, UniProt E2QF15); assay: Inhibition of MraY in Escherichia coli
# T2 sequence (E2QF15 whole entry): T1 sequence (P0A6W3 whole entry)
# [10] = Cytotoxicity against human HepG2 cells assessed as reduction in cell viability incubated for 72 hrs by MTT assay; format: toxicity, cell-based
compound,measurement,setting,value
CO[C@H]1[C@H](O[C@@H](C2C(=O)N(Cc3ccccc3)C(=O)N2CCCNC(=O)[C@@H](NC(=O)[C@@H](NC(=O)N[C@H](C(=O)O)C(C)C)[C@@H]2CCNC(=N)N2)[C@@H](O)C(C)C)[C@H]2O[C@@H](n3ccc(=O)[nH]c3=O)[C@H](O)[C@@H]2O)O[C@H](CN)[C@H]1O (stereo partly drawn),IC50,[1],6.25 µM
CO[C@H]1[C@@H](O)[C@H](n2ccc(=O)[nH]c2=O)O[C@@H]1C(OC1OC(C(=O)Nc2ccc(C(O)C(O)C(=O)N/C=C/C(=O)NCC(=O)O)cc2)=CC(O)C1O)C(N)=O (stereo partly drawn),IC50,[1],0.011 µM
O=C(NCCCNC(=O)[C@@H](O)[C@H](O)C(=O)NC[C@H]1O[C@@H](n2ccc(=O)[nH]c2=O)[C@H](O)[C@@H]1O)[C@@H](O)[C@H](O)C(=O)NC[C@H]1O[C@@H](n2ccc(=O)[nH]c2=O)[C@H](O)[C@@H]1O,inhibition,[2],10%
CCCCCCCCCCCCN1C(=O)C([C@H](O[C@@H]2O[C@H](CN)[C@@H](O)[C@H]2OC)[C@H]2O[C@@H](n3ccc(=O)[nH]c3=O)[C@H](O)[C@@H]2O)N(CCCNC(=O)[C@@H](NC(=O)[C@@H](NC(=O)N[C@H](C(=O)O)C(C)C)[C@@H]2CCNC(=N)N2)[C@@H](O)C(C)C)C1=O (stereo partly drawn),IC50,[1],6.25 µM
C/C=C1\CN(C(=O)[C@@H](NC(=O)[C@@H](N)[C@H](O)[C@@H](O)COC(N)=O)[C@H]2O[C@@H](n3cc(CO)c(=O)[nH]c3=O)[C@H](O)[C@@H]2O)[C@H]1C(=O)O,MIC,[3],> 256 µg/mL
same,MIC,[4],256 µg/mL
O=C(NCCNC(=O)[C@@H](O)[C@H](O)C(=O)NC[C@H]1O[C@@H](n2ccc(=O)[nH]c2=O)[C@H](O)[C@@H]1O)[C@@H](O)[C@H](O)C(=O)NC[C@H]1O[C@@H](n2ccc(=O)[nH]c2=O)[C@H](O)[C@@H]1O,inhibition,[2],5%
NC[C@H]1O[C@@H](OC[C@H]2O[C@@H](n3ccc(=O)[nH]c3=O)C[C@@H]2O)[C@H](O)[C@@H]1O,IC50,[5],10 µM
C[C@@H]([C@H](NC(=O)[C@H](Cc1ccccc1)NC(=O)N[C@@H](Cc1c[nH]c2ccccc12)C(=O)O)C(=O)NC[C@H]1C[C@@H](O)[C@H](n2ccc(=O)[nH]c2=O)O1)N(C)C(=O)CN,MIC,[6],8 µg/mL
CC(=O)N[C@H]1[C@H](O[C@@H]2O[C@H](C[C@@H](C)[C@H]3O[C@@H](n4ccc(=O)[nH]c4=O)[C@H](O)[C@@H]3O)[C@H](O)[C@H](O)[C@H]2NC(=O)CC(O)CCCCCCCCCCC(C)C)O[C@@H](CO)[C@H](O)[C@@H]1O (stereo partly drawn),LD50,[7],137 µg/kg
same,MIC,[8],0.1 µg/mL
C[C@@H]([C@H](NC(=O)[C@H](Cc1ccccc1)NC(=O)N[C@@H](Cc1c[nH]c2ccccc12)C(=O)O)C(=O)NCC1C[C@@H](O)[C@H](n2ccc(=O)[nH]c2=O)O1)N(C)C(=O)[C@@H](N)Cc1ccc(F)cc1 (stereo partly drawn),MIC,[6],16 µg/mL
C[C@H](N)C(=O)N(C)[C@@H](C)[C@H](NC(=O)[C@H](Cc1ccccc1)NC(=O)N[C@@H](Cc1c[nH]c2ccccc12)C(=O)O)C(=O)NCC1C[C@@H](O)[C@H](n2ccc(=O)[nH]c2=O)O1 (stereo partly drawn),MIC,[6],16 µg/mL
CC(C)[C@H](NC(=O)N[C@H](C(=O)N[C@H](C(=O)NCCCN[C@@H](CC[C@H]1O[C@@H](n2ccc(=O)[nH]c2=O)[C@H](O)[C@@H]1O)C(=O)O)[C@@H](O)C(C)C)[C@@H]1CCNC(=N)N1)C(=O)O,IC50,[9],1.7 µM
same,IC50,[1],150 µM
CCC(C)CCCCCCCCCCCCC(=O)N[C@H]1[C@H](O[C@@H]2O[C@@H](CO)[C@H](O)[C@H](O)[C@H]2NC(C)=O)O[C@H](C[C@@H](C)[C@H]2O[C@@H](n3ccc(=O)[nH]c3=O)[C@H](O)[C@@H]2O)[C@H](O)[C@@H]1O (stereo partly drawn),LD50,[7],137 µg/kg
same,MIC,[8],0.1 µg/mL
O=C(NC[C@H]1O[C@@H](n2ccc(=O)[nH]c2=O)[C@H](O)[C@@H]1O)[C@@H](O)[C@H](O)C(=O)NC[C@H]1O[C@@H](n2ccc(=O)[nH]c2=O)[C@H](O)[C@@H]1O,inhibition,[2],35%
CC(C)[C@H](NC(=O)N[C@H](C(=O)N[C@H](CCCCCCCc1ccc(-c2ccccc2)cc1)C(=O)NCCCNC(C(=O)O)[C@H](O[C@@H]1O[C@H](CN)[C@@H](O)[C@H]1O)[C@H]1O[C@@H](n2ccc(=O)[nH]c2=O)[C@H](O)[C@@H]1O)[C@@H]1CCNC(=N)N1)C(=O)O (stereo partly drawn),IC50 at 72 h,[10],> 100 µg/mL
CC(C)C[C@H](NC(=O)N[C@@H](Cc1ccc(O)cc1)C(=O)O)C(=O)N[C@H](C(=O)NCC1C[C@@H](O)[C@H](n2ccc(=O)[nH]c2=O)O1)[C@H](C)N(C)C(=O)[C@H](C)N (stereo partly drawn),MIC,[6],16 µg/mL
NC(=O)[C@@H](O)[C@H](O)C(=O)NC[C@H]1O[C@@H](n2ccc(=O)[nH]c2=O)[C@H](O)[C@@H]1O,inhibition,[2],20%
CC(=O)N[C@H]1[C@H](O[C@@H]2O[C@H](C[C@@H](C)[C@H]3O[C@@H](n4ccc(=O)[nH]c4=O)[C@H](O)[C@@H]3O)[C@H](O)[C@H](O)[C@H]2NC(=O)/C=C/CCCCCCCCCCC(C)C)O[C@@H](CO)[C@H](O)[C@@H]1O,LD50,[7],137 µg/kg
same,MIC,[8],0.1 µg/mL
C[C@@H]([C@H](NC(=O)[C@H](Cc1ccccc1)NC(=O)N[C@@H](Cc1c[nH]c2ccccc12)C(=O)O)C(=O)NCC1C[C@@H](O)[C@H](n2ccc(=O)[nH]c2=O)O1)N(C)C(=O)[C@@H](N)Cc1ccc(O)cc1 (stereo partly drawn),MIC,[6],16 µg/mL
CC(C)C[C@H](NC(=O)N[C@@H](Cc1c[nH]c2ccccc12)C(=O)O)C(=O)N[C@H](C(=O)NC[C@H]1C[C@@H](O)[C@H](n2ccc(=O)[nH]c2=O)O1)[C@H](C)N(C)C(=O)CN,MIC,[6],4 µg/mL
CC(=O)N[C@H]1[C@H](O[C@@H]2O[C@H](C[C@@H](C)[C@H]3O[C@@H](n4ccc(=O)[nH]c4=O)[C@H](O)[C@@H]3O)[C@H](O)[C@H](O)[C@H]2NC(=O)CCCCCCCCCCCCC(C)C)O[C@@H](CO)[C@H](O)[C@@H]1O,LD50,[7],137 µg/kg
same,MIC,[8],0.1 µg/mL
CC(=O)N[C@H]1[C@H](O[C@@H]2O[C@H](C[C@@H](C)[C@H]3O[C@@H](n4ccc(=O)[nH]c4=O)[C@H](O)[C@@H]3O)[C@H](O)[C@H](O)[C@H]2NC(=O)CC(O)CCCCCCCCCCCCC(C)C)O[C@@H](CO)[C@H](O)[C@@H]1O (stereo partly drawn),LD50,[7],137 µg/kg
same,MIC,[8],0.1 µg/mL
CCCCOc1ccc(-c2ccc(CC[C@@H](NC(=O)[C@@H](NC(=O)N[C@H](C(=O)O)C(C)C)[C@@H]3CCNC(=N)N3)C(=O)NCCCNC(C(=O)O)[C@H](O[C@@H]3O[C@H](CN)[C@@H](O)[C@H]3O)[C@H]3O[C@@H](n4ccc(=O)[nH]c4=O)[C@H](O)[C@@H]3O)cc2)cc1 (stereo partly drawn),IC50 at 72 h,[10],> 100 µg/mL
NC(=O)[C@H](O)[C@@H](O)C(=O)NC[C@H]1O[C@@H](n2ccc(=O)[nH]c2=O)[C@H](O)[C@@H]1O,inhibition,[2],12%
NC(=O)OC[C@H](O)[C@@H](O)[C@H](N)C(=O)N[C@H](C(=O)NC(CCC(=O)O)C(=O)O)[C@H]1O[C@@H](n2cc(C=O)[nH]c2=O)[C@H](O)[C@@H]1O (stereo partly drawn),MIC,[3],> 256 µg/mL
same,MIC,[4],256 µg/mL
CCCCOc1ccc(-c2ccc(CC[C@H](NC(=O)[C@@H](NC(=O)N[C@H](C(=O)O)C(C)C)[C@@H]3CCNC(=N)N3)C(=O)NCCCNC(C(=O)O)[C@H](O[C@@H]3O[C@H](CN)[C@@H](O)[C@H]3O)[C@H]3O[C@@H](n4ccc(=O)[nH]c4=O)[C@H](O)[C@@H]3O)cc2)cc1 (stereo partly drawn),IC50 at 72 h,[10],> 100 µg/mL
CC(C)[C@H](NC(=O)N[C@H](C(=O)N[C@@H](CCCCCCCc1ccc(-c2ccccc2)cc1)C(=O)NCCCNC(C(=O)O)[C@H](O[C@@H]1O[C@H](CN)[C@@H](O)[C@H]1O)[C@H]1O[C@@H](n2ccc(=O)[nH]c2=O)[C@H](O)[C@@H]1O)[C@@H]1CCNC(=N)N1)C(=O)O (stereo partly drawn),IC50 at 72 h,[10],> 100 µg/mL
CC(C)C[C@@H](NC(=O)[C@@H](NC(=O)N[C@H](C(=O)O)C(C)C)[C@@H]1CCNC(=N)N1)C(=O)NCCCNC(C(=O)O)[C@H](O[C@@H]1O[C@H](CN)[C@@H](O)[C@H]1O)[C@H]1O[C@@H](n2ccc(=O)[nH]c2=O)[C@H](O)[C@@H]1O (stereo partly drawn),IC50 at 72 h,[10],> 100 µg/mL
C/C=C1\CN(C(=O)[C@@H](NC(=O)[C@@H](N)[C@H](O)[C@@H](O)COC(N)=O)[C@H]2O[C@@H](n3cc(C=O)[nH]c3=O)[C@H](O)[C@@H]2O)[C@H]1C(=O)O,MIC,[3],> 256 µg/mL
same,MIC,[4],0.5 µg/mL
NC[C@H]1O[C@@H](O[C@@H](CO)[C@H]2O[C@@H](n3ccc(=O)[nH]c3=O)[C@H](O)[C@@H]2O)[C@H](O)[C@@H]1O,IC50,[1],5 µM
NC(=O)OC[C@H](O)[C@@H](O)[C@H](N)C(=O)N[C@H](C(=O)NC(CCC(=O)O)C(=O)O)[C@H]1O[C@@H](n2ccc(=O)[nH]c2=O)[C@H](O)[C@@H]1O (stereo partly drawn),MIC,[3],> 256 µg/mL
same,MIC,[4],256 µg/mL
NC[C@H]1O[C@@H](OC[C@@H]2C[C@@H](O)[C@H](n3ccc(=O)[nH]c3=O)O2)[C@H](O)[C@@H]1O,IC50,[5],10 µM
CCC(C)CCCCCCCCCC/C=C/C(=O)N[C@H]1[C@H](O[C@@H]2O[C@@H](CO)[C@H](O)[C@H](O)[C@H]2NC(C)=O)O[C@H](C[C@@H](C)[C@H]2O[C@@H](n3ccc(=O)[nH]c3=O)[C@H](O)[C@@H]2O)[C@H](O)[C@@H]1O (stereo partly drawn),LD50,[7],137 µg/kg
same,MIC,[8],0.1 µg/mL
CCCCCCCCCCCCCCC[C@H](NC(=O)[C@@H](NC(=O)N[C@H](C(=O)O)C(C)C)[C@@H]1CCNC(=N)N1)C(=O)NCCCNC(C(=O)O)[C@H](O[C@@H]1O[C@H](CN)[C@@H](O)[C@H]1O)[C@H]1O[C@@H](n2ccc(=O)[nH]c2=O)[C@H](O)[C@@H]1O (stereo partly drawn),IC50 at 72 h,[10],> 100 µg/mL
NC[C@H]1O[C@@H](OC[C@H]2O[C@@H](n3ccc(=O)[nH]c3=O)[C@H](O)[C@@H]2O)[C@H](O)[C@@H]1O,IC50,[9],25 µM
same,IC50,[1],50 µM
same,IC50,[5],10 µM
